Measurements taken from ChEMBL document CHEMBL2396580, “Spongiacidin C, a pyrrole alkaloid from the marine sponge Stylissa massa, functions as a USP7 inhibitor” (Bioorg Med Chem Lett, 2013).
Activity calls are given as the source filed them. No cut-off for these calls is given here.

Assays:
[1] = molecular target: T1, Ubiquitin carboxyl-terminal hydrolase 7 (Homo sapiens, UniProt Q93009); assay: Inhibition of USP7 (unknown origin) using ubiquitin-EKL as substrate
Target sequence in this assay (Q93009 whole entry): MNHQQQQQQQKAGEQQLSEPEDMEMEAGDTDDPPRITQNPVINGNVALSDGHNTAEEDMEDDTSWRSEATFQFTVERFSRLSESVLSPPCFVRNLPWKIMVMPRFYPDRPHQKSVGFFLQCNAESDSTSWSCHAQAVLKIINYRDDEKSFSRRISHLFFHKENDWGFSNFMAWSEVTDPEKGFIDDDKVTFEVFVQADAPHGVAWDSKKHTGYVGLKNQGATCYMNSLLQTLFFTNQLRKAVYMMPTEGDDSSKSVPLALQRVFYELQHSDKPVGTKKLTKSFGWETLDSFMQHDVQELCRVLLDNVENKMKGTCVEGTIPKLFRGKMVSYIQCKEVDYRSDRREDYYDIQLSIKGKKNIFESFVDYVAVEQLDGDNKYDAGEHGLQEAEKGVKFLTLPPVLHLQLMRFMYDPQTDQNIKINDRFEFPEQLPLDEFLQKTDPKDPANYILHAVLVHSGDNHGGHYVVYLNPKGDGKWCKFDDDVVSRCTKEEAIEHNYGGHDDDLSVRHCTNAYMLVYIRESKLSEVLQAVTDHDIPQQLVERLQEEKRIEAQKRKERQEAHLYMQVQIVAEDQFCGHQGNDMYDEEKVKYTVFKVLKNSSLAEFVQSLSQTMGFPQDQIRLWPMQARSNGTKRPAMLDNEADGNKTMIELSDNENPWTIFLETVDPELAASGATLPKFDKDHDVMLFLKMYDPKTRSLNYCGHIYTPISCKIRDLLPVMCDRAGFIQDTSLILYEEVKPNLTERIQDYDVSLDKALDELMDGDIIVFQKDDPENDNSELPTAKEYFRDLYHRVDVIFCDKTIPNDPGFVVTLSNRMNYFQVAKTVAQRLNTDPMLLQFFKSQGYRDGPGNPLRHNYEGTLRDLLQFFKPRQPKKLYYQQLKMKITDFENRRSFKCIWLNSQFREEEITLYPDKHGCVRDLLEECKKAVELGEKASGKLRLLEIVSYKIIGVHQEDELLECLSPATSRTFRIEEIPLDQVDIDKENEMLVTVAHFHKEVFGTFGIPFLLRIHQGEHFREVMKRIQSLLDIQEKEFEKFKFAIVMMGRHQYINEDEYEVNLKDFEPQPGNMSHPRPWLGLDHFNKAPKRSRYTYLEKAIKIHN

[2] = molecular target: T1, Ubiquitin carboxyl-terminal hydrolase 7; assay: Inhibition of USP7 (unknown origin) using ubiquitin-EKL as substrate at 20 uM
Target sequence in this assay (Q93009 whole entry, looked up): as the sequence (Q93009 whole entry) above

[3] = tested on: HCT-116; assay: Antiproliferative activity against p53 wild type human HCT116 cells expressing USP7 assessed as growth inhibition up to 50 uM; type: functional, cell-based
[4] = molecular target: T2, Sentrin-specific protease 1 (Homo sapiens, UniProt Q9P0U3); assay: Inhibition of core catalytic domain of SENP1 (unknown origin) using SUMO3-EKL as substrate
T2 sequence (Q9P0U3 whole entry): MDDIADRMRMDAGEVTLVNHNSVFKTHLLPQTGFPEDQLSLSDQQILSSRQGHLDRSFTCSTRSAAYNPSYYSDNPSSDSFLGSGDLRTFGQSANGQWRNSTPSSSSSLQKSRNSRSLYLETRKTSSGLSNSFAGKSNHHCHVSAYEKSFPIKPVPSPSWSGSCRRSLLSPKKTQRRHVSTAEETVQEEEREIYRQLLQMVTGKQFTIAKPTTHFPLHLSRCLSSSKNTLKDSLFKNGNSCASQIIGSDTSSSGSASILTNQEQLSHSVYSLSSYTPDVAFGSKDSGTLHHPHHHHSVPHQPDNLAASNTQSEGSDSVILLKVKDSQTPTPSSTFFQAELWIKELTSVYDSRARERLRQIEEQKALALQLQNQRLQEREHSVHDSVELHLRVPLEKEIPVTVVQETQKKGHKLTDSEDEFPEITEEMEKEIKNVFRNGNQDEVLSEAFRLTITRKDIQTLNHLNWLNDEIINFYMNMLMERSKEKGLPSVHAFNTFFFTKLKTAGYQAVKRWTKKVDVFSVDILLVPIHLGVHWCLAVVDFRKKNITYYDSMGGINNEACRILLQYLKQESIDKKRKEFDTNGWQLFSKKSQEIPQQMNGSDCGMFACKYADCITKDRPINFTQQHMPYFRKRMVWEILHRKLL

[5] = molecular target: T3, Ubiquitin carboxyl-terminal hydrolase 21 (Homo sapiens, UniProt Q9UK80); assay: Inhibition of core catalytic domain of USP21 (unknown origin) using ubiquitin-Rh110 as substrate
T3 sequence (Q9UK80 whole entry): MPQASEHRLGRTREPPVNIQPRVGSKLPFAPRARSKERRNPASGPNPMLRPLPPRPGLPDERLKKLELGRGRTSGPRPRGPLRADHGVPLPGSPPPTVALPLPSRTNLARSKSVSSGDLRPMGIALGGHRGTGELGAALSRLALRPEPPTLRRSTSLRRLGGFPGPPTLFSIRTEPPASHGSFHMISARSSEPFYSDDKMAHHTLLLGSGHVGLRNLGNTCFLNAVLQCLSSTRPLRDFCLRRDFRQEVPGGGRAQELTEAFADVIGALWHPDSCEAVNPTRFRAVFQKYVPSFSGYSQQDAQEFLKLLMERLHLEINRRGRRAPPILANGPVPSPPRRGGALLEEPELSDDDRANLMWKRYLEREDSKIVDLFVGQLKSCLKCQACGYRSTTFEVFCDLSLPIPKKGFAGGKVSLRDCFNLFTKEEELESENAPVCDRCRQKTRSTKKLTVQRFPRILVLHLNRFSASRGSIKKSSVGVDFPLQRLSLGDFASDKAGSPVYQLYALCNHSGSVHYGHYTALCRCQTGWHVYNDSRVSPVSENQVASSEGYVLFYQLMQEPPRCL

[6] = molecular target: T4, Ubiquitin carboxyl-terminal hydrolase 8 (Homo sapiens, UniProt P40818); assay: Inhibition of core catalytic domain of USP8 (unknown origin) using ubiquitin-Rh110 as substrate
T4 sequence (P40818 whole entry): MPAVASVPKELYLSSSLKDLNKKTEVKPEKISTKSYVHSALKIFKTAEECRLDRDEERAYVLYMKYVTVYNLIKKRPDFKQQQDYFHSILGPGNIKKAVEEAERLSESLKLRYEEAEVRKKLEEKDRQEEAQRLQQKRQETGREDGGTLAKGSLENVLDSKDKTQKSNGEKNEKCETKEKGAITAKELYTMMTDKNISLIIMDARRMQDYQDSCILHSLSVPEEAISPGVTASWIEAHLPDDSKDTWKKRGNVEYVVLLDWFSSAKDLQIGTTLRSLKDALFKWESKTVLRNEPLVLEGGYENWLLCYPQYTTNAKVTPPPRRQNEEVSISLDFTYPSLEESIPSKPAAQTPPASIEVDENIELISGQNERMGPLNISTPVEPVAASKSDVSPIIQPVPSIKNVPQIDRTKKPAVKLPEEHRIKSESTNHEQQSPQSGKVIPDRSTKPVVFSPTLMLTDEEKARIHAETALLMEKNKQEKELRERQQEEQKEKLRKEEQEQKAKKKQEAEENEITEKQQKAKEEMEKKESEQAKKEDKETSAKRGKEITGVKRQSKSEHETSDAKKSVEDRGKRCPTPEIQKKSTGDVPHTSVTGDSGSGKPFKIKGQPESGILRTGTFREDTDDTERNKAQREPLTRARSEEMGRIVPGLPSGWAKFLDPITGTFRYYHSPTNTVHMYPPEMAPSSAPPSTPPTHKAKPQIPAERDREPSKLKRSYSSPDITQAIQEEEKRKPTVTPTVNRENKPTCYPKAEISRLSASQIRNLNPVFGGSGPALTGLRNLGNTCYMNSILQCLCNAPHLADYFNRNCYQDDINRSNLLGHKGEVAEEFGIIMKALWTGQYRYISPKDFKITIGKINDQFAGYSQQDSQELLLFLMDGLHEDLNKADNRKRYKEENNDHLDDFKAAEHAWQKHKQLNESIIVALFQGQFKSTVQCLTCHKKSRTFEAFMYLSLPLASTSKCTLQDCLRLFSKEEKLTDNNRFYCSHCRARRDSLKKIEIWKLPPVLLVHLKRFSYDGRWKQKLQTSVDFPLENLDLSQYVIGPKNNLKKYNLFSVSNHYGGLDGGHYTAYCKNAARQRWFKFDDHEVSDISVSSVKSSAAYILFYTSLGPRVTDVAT

[7] = molecular target: T5, Ubiquitin carboxyl-terminal hydrolase 2 (Homo sapiens, UniProt O75604); assay: Inhibition of core catalytic domain of USP2 (unknown origin) using diubiquitin IQF K4804 as substrate
T5 sequence (O75604 whole entry): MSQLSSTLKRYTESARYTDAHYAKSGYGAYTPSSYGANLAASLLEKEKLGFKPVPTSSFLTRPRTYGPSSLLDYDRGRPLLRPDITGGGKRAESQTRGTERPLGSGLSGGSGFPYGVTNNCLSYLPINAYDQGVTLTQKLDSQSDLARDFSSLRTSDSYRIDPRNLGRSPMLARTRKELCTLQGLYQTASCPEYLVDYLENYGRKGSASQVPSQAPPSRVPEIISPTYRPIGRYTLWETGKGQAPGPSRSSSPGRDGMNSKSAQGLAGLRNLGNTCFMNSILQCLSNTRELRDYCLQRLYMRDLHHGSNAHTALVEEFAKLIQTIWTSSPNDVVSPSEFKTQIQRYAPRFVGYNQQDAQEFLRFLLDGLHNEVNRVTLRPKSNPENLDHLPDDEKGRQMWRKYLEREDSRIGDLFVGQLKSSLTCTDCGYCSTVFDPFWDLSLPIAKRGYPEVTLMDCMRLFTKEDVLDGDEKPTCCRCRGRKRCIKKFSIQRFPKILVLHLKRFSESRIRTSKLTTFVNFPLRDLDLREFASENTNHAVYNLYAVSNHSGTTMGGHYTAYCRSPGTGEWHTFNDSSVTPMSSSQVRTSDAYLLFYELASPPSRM

SMILES	IC50 [1]	inhibition [2]	other results
N#Cc1nc2c(nc1C#N)-c1ccc(Cl)cc1C2=O	0.42 µM		
CN(CCCNC(=O)c1ccc2nc3c(c(Cl)c2c1)CCCC3)Cc1ccccc1	28.1 µM		
CCN(CCCNC(=O)c1ccc2nc3c(c(Cl)c2c1)CCCC3)Cc1ccccc1	22.6 µM		
NC1=N/C(=C2/CCNC(=O)c3[nH]ccc32)C(=O)N1		20%	
NC1=NC(=O)/C(=C2\CCNC(=O)c3[nH]c(Br)cc32)N1		20%	
O=C1NC(=O)/C(=C2\CCNC(=O)c3[nH]ccc32)N1 [SPONGIACIDIN C]	3.8 µM		growth inhibition (GI) [3]: inactive; IC50 [4]: > 31.6 µM; IC50 [5]: 16.6 µM; IC50 [6]: > 31.6 µM; IC50 [7]: > 31.6 µM
